biological target: T1, Kv7.2/7.3 (Homo sapiens, UniProt O43525+O43526); assay: Kv7.2/7.3 Activation Assay (Thallium Flux Assay); type: cell-based; conditions: hKV7.2/7.3 cell line; test compound at single concentration of 10 μM; fluorescence at 90 sec normalized to positive control (retigabine, 30 μM)
T1 construct: Kv7.2 tetracycline-induced, Kv7.3 constitutive
Summary of the method: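 Single-point activity at 10 μM (0.1% DMSO, HEPES-buffered saline, pH 7.4) was scored from fluorescence at 90 s relative to 30 μM retigabine. Categories were none <0.15, moderate 0.15-0.7 and high >0.7. Thallium influx after stimulus addition was followed with FluxOR II Green dye in hKv7.2/7.3 cells, Kv7.2 expressed under overnight tetracycline (10 ng/mL) induction.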

SMILES	Kv7.2/7.3 Activity
Cn1nc(NC(=O)CCC(F)(F)C(F)(F)F)c(C2CCC2)c1-c1ccc(F)cc1 [Compound 101, N-(4-cyclobutyl-5-(4-fluorophenyl)-1-methyl-1H-pyrazol-3-yl)-4,4,5,5,5-pentafluoropentanamide]	++ (“++” High Activity ≥ 0.7)
Cn1nc(NC(=O)CC2CCCC2)c(C2CCC2)c1-c1ccc(F)cc1 [Compound 102, N-(4-cyclobutyl-5-(4-fluorophenyl)-1-methyl-1H-pyrazol-3-yl)-2-cyclopentylacetamide]	++ (“++” High Activity ≥ 0.7)
Cn1nc(NC(=O)C2(c3ccccc3)CC2)c(C2CCC2)c1-c1ccc(F)cc1 [Compound 103, N-(4-cyclobutyl-5-(4-fluorophenyl)-1-methyl-1H-pyrazol-3-yl)-1-phenylcyclopropane-1-carboxamide]	+ (“+” Moderate Activity 0.15-0.7)
CC[C@H](C)CC(=O)Nc1nn(C)c(-c2ccc(F)cc2)c1C1CCC1 [Compound 104, (S)-N-(4-cyclobutyl-5-(4-fluorophenyl)-1-methyl-1H-pyrazol-3-yl)-3-methylpentanamide]	++ (“++” High Activity ≥ 0.7)
Cn1nc(NC(=O)CC2(C(F)(F)F)CC2)c(C2CCC2)c1-c1ccccc1F [Compound 105, N-(4-cyclobutyl-5-(2-fluorophenyl)-1-methyl-1H-pyrazol-3-yl)-2-(1-(trifluoromethyl)cyclopropyl)acetamide]	++ (“++” High Activity ≥ 0.7)
Cn1nc(NC(=O)CC2CC(F)(F)C2)c(C2CCC2)c1-c1ccccc1F [Compound 106, N-(4-cyclobutyl-5-(2-fluorophenyl)-1-methyl-1H-pyrazol-3-yl)-2-(3,3-difluorocyclobutyl)acetamide]	++ (“++” High Activity ≥ 0.7)
Cn1nc(NC(=O)CC2(C(F)(F)F)CC2)c(C2CCC2)c1-c1ccc(F)cc1F [Compound 107, N-(4-cyclobutyl-5-(2,4-difluorophenyl)-1-methyl-1H-pyrazol-3-yl)-2-(1-(trifluoromethyl)cyclopropyl)acetamide]	++ (“++” High Activity ≥ 0.7)
Cn1nc(NC(=O)COC(C)(C)C)c(C2CCC2)c1-c1ccc(F)cc1 [Compound 108, 2-(tert-butoxy)-N-(4-cyclobutyl-5-(4-fluorophenyl)-1-methyl-1H-pyrazol-3-yl)acetamide]	+ (“+” Moderate Activity 0.15-0.7)
Cn1nc(NC(=O)CC(C(F)(F)F)C(F)(F)F)c(C2CCC2)c1-c1ccc(F)cc1 [Compound 109, N-(4-cyclobutyl-5-(4-fluorophenyl)-1-methyl-1H-pyrazol-3-yl)-4,4,4-trifluoro-3-(trifluoromethyl)butanamide]	++ (“++” High Activity ≥ 0.7)
Cn1nc(NC(=O)[C@H]2CC2(C)C)c(C2CCC2)c1-c1ccc(F)cc1 [Compound 110, (S)-N-(4-cyclobutyl-5-(4-fluorophenyl)-1-methyl-1H-pyrazol-3-yl)-2,2-dimethylcyclopropane-1-carboxamide]	++ (“++” High Activity ≥ 0.7)
Cn1nc(NC(=O)[C@H]2C[C@]2(C)C(F)F)c(C2CCC2)c1-c1ccc(F)cc1 [Compound 111, (1S,2S)-N-(4-cyclobutyl-5-(4-fluorophenyl)-1-methyl-1H-pyrazol-3-yl)-2-(difluoromethyl)-2-methylcyclopropane-1-carboxamide]	++ (“++” High Activity ≥ 0.7)
Cn1nc(NC(=O)[C@H]2C[C@@]2(C)C(F)F)c(C2CCC2)c1-c1ccc(F)cc1 [Compound 112, (1S,2R)-N-(4-cyclobutyl-5-(4-fluorophenyl)-1-methyl-1H-pyrazol-3-yl)-2-(difluoromethyl)-2-methylcyclopropane-1-carboxamide]	++ (“++” High Activity ≥ 0.7)
C[C@H](C(=O)Nc1nn(C)c(-c2ccc(F)cc2)c1C1CCC1)C(C)(C)C [Compound 113, (S)-N-(4-cyclobutyl-5-(4-fluorophenyl)-1-methyl-1H-pyrazol-3-yl)-2,3,3-trimethylbutanamide]	++ (“++” High Activity ≥ 0.7)
C[C@@H](C(=O)Nc1nn(C)c(-c2ccc(F)cc2)c1C1CCC1)C(C)(C)C [Compound 114, (R)-N-(4-cyclobutyl-5-(4-fluorophenyl)-1-methyl-1H-pyrazol-3-yl)-2,3,3-trimethylbutanamide]	++ (“++” High Activity ≥ 0.7)
Cn1nc(NC(=O)C[C@H](O)C(C)(C)C)c(C2CCC2)c1-c1ccc(F)cc1 [Compound 115, (S)-N-(4-cyclobutyl-5-(4-fluorophenyl)-1-methyl-1H-pyrazol-3-yl)-3-hydroxy-4,4-dimethylpentanamide]	+ (“+” Moderate Activity 0.15-0.7)
Cn1nc(NC(=O)C[C@](C)(O)C2CC(F)(F)C2)c(C2CCC2)c1-c1ccc(F)cc1 [Compound 116, (S)-N-(4-cyclobutyl-5-(4-fluorophenyl)-1-methyl-1H-pyrazol-3-yl)-3-(3,3-difluorocyclobutyl)-3-hydroxybutanamide]	+ (“+” Moderate Activity 0.15-0.7)

SMILES	Kv7.2/7.3 Activity
Cn1nc(NC(=O)C(F)(F)C(C)(O)c2ccccc2)c(C2CCC2)c1-c1ccc(F)cc1 (stereo not shown) [Compound 117, N-(4-cyclobutyl-5-(4-fluorophenyl)-1-methyl-1H-pyrazol-3-yl)-2,2-difluoro-3-hydroxy-3-phenylbutanamide]	++ (“++” High Activity ≥ 0.7)
Cn1nc(NC(=O)[C@H]2C[C@@H](C(F)(F)F)C2)c(C2CCC2)c1-c1ccc(F)cc1 [Compound 118, (1S,3S)-N-(4-cyclobutyl-5-(4-fluorophenyl)-1-methyl-1H-pyrazol-3-yl)-3-(trifluoromethyl)cyclobutane-1-carboxamide]	++ (“++” High Activity ≥ 0.7)
Cn1nc(NC(=O)[C@H]2C[C@H](C(F)(F)F)C2)c(C2CCC2)c1-c1ccc(F)cc1 [Compound 119, (1R,3R)-N-(4-cyclobutyl-5-(4-fluorophenyl)-1-methyl-1H-pyrazol-3-yl)-3-(trifluoromethyl)cyclobutane-1-carboxamide]	++ (“++” High Activity ≥ 0.7)
Cn1nc(NC(=O)[C@@H]2CCC(F)(F)C2)c(C2CCC2)c1-c1ccc(F)cc1 [Compound 120, (R)-N-(4-cyclobutyl-5-(4-fluorophenyl)-1-methyl-1H-pyrazol-3-yl)-3,3-difluorocyclopentane-1-carboxamide]	++ (“++” High Activity ≥ 0.7)
Cn1nc(NC(=O)C2CC(C)(C)C2)c(C2CCC2)c1-c1ccc(F)cc1 [Compound 121, N-(4-cyclobutyl-5-(4-fluorophenyl)-1-methyl-1H-pyrazol-3-yl)-3,3-dimethylcyclobutane-1-carboxamide]	++ (“++” High Activity ≥ 0.7)
Cn1nc(NC(=O)[C@H]2C[C@@H](C)C2)c(C2CCC2)c1-c1ccc(F)cc1 [Compound 122, (1S,3S)-N-(4-cyclobutyl-5-(4-fluorophenyl)-1-methyl-1H-pyrazol-3-yl)-3-methylcyclobutane-1-carboxamide]	++ (“++” High Activity ≥ 0.7)
Cn1nc(NC(=O)[C@H]2C[C@H](C)C2)c(C2CCC2)c1-c1ccc(F)cc1 [Compound 123, (1R,3R)-N-(4-cyclobutyl-5-(4-fluorophenyl)-1-methyl-1H-pyrazol-3-yl)-3-methylcyclobutane-1-carboxamide]	++ (“++” High Activity ≥ 0.7)
Cn1nc(NC(=O)C2(C(F)(F)F)CCC2)c(C2CCC2)c1-c1ccc(F)cc1 [Compound 124, N-(4-cyclobutyl-5-(4-fluorophenyl)-1-methyl-1H-pyrazol-3-yl)-1-(trifluoromethyl)cyclobutane-1-carboxamide]	+ (“+” Moderate Activity 0.15-0.7)
Cn1nc(NC(=O)C2CC(F)(F)C2)c(C2CCC2)c1-c1ccc(F)cc1 [Compound 125, N-(4-cyclobutyl-5-(4-fluorophenyl)-1-methyl-1H-pyrazol-3-yl)-3,3-difluorocyclobutane-1-carboxamide]	++ (“++” High Activity ≥ 0.7)
Cn1nc(NC(=O)C2(C(F)(F)F)CC2)c(C2CCC2)c1-c1ccc(F)cc1 [Compound 126, N-(4-cyclobutyl-5-(4-fluorophenyl)-1-methyl-1H-pyrazol-3-yl)-1-(trifluoromethyl)cyclopropane-1-carboxamide]	++ (“++” High Activity ≥ 0.7)
C[C@H](C(=O)Nc1nn(C)c(-c2ccc(F)cc2)c1C1CCC1)C1(C(F)(F)F)CC1 [Compound 127, (S)-N-(4-cyclobutyl-5-(4-fluorophenyl)-1-methyl-1H-pyrazol-3-yl)-2-(1-(trifluoromethyl)cyclopropyl)propanamide]	++ (“++” High Activity ≥ 0.7)
C[C@@H](C(=O)Nc1nn(C)c(-c2ccc(F)cc2)c1C1CCC1)C1(C(F)(F)F)CC1 [Compound 128, (R)-N-(4-cyclobutyl-5-(4-fluorophenyl)-1-methyl-1H-pyrazol-3-yl)-2-(1-(trifluoromethyl)cyclopropyl)propanamide]	++ (“++” High Activity ≥ 0.7)
C[C@H](C(=O)Nc1nn(C)c(-c2ccc(F)cc2)c1C1CCC1)C1CC(F)(F)C1 [Compound 129, (S)-N-(4-cyclobutyl-5-(4-fluorophenyl)-1-methyl-1H-pyrazol-3-yl)-2-(3,3-difluorocyclobutyl)propanamide]	++ (“++” High Activity ≥ 0.7)
Cn1nc(NC(=O)C2(O)CC2)c(C2CCC2)c1-c1ccc(F)cc1 [Compound 130, N-(4-cyclobutyl-5-(4-fluorophenyl)-1-methyl-1H-pyrazol-3-yl)-1-hydroxycyclopropane-1-carboxamide]	− (“−” No Activity < 0.15)
Cn1nc(NC(=O)C2(C(C)(F)F)CC2)c(C2CCC2)c1-c1ccc(F)cc1 [Compound 131, N-(4-cyclobutyl-5-(4-fluorophenyl)-1-methyl-1H-pyrazol-3-yl)-1-(1,1-difluoroethyl)cyclopropane-1-carboxamide]	++ (“++” High Activity ≥ 0.7)

From patent US20250171430A1, “PYRAZOLYL COMPOUNDS AS KV7 CHANNEL ACTIVATORS” (Biohaven Therapeutics Ltd., priority 2022, published 2025)
